In one test the target is Apolipoprotein L1 (Homo sapiens, UniProt O14791). The test is described as follows: Inhibition of APOL1 G1 variant in human HEK293-T-REx cells measured by Thallium assay. The format is cell-based.
Test [1] deals with Trypanosoma brucei brucei. In words: Antitrypanosomal activity against Trypanosoma brucei brucei assessed as trypanosome lysis using recombinant APOL1 protein G1 variant and measured by Alamar blue based fluoresence assay. The format is functional, organism-based. A general note: Alamar Blue is a resazurin reagent that responds to reducing activity.

A word on the IC50: it is the concentration at which inhibition is half-maximal.

For the compound `O=C1CC[C@H](NC(=O)[C@H]2C[C@H](c3c(-c4ccc(F)cc4)[nH]c4c(F)cc(F)cc43)C2)C1`, the values for the IC50 (against Apolipoprotein L1; in test [1]) were 0.00025 µM and 0.25 µM, respectively.
As for `O=C1CCC(NC(=O)[C@H]2C[C@H](c3c(-c4ccc(F)cc4)[nH]c4c(F)cc(F)cc43)C2)C1` (stereo not given in full), the IC50 (at Apolipoprotein L1; in test [1]) was over 1 µM each time.
As to `O=C1C[C@H](NC(=O)[C@H]2C[C@H](c3c(-c4ccc(F)cc4)[nH]c4c(F)cc(F)cc43)C2)C(=O)N1`, the IC50 (against Apolipoprotein L1; in test [1]) was under 0.25 µM each time.
In the case of `CN(CC(O)CO)C(=O)[C@H]1C[C@H](c2c(-c3ccc(F)cc3)[nH]c3c(F)cc(F)cc32)C1` (stereo not given in full), the IC50 is over 1 µM on Apolipoprotein L1 and 0.25 µM in test [1].
For `O=C([C@H]1C[C@H](c2c(-c3ccc(F)cc3)[nH]c3c(F)cc(F)cc32)C1)N1CC(O)C(CO)C1` (stereo not given in full) the same measures were over 1 µM and 0.25 µM.
For `Cc1noc(CNC(=O)[C@H]2C[C@H](c3c(-c4ccc(F)cc4)[nH]c4c(F)cc(F)cc43)C2)n1` the same measures were under 0.25 µM and under 0.25 µM.
For `O=C([C@H]1C[C@H](c2c(-c3ccc(F)cc3)[nH]c3c(F)cc(F)cc32)C1)N1CCCC[C@H]1CO`, in that order: over 1 µM and 0.25 µM.
`O=C([C@H]1C[C@H](c2c(-c3ccc(F)cc3)[nH]c3c(F)cc(F)cc32)C1)N1CCCC[C@@H]1CCO`: the IC50 (at Apolipoprotein L1; in test [1]) was over 1 µM in each case.
Consider `O=C([C@H]1C[C@H](c2c(-c3ccc(F)cc3)[nH]c3c(F)cc(F)cc32)C1)N1CCCCC1CO` (stereo not given in full), for which the results for the IC50 (at Apolipoprotein L1; in test [1]) were over 1 µM and 0.25 µM, respectively.
For `O=C1C[C@@H](NC(=O)[C@H]2C[C@H](c3c(-c4ccc(F)cc4)[nH]c4c(F)cc(F)cc43)C2)C(=O)N1`, the IC50 (at Apolipoprotein L1; in test [1]) was under 0.25 µM in each case.
Consider `NC(=O)[C@H]1C[C@H](c2c(-c3ccc(F)cc3)[nH]c3c(F)cc(F)cc32)C1`, for which the IC50 at Apolipoprotein L1 is 0.00025 µM; in test [1], under 0.25 µM.
For `NC(=O)[C@H]1CCCN1C(=O)[C@H]1C[C@H](c2c(-c3ccc(F)cc3)[nH]c3c(F)cc(F)cc32)C1`, in that order: 0.00025 µM and over 1 µM.
`Cn1cncc1CNC(=O)[C@H]1C[C@H](c2c(-c3ccc(F)cc3)[nH]c3c(F)cc(F)cc32)C1`: the IC50 against Apolipoprotein L1 is over 1 µM; in test [1], 0.25 µM.
As for `O=C([C@H]1C[C@H](c2c(-c3ccc(F)cc3)[nH]c3c(F)cc(F)cc32)C1)N1CCCC(CO)C1` (stereo not given in full), the IC50 (against Apolipoprotein L1; in test [1]) was over 1 µM in each case.
On to `NC(=O)[C@@H]1CCN(C(=O)[C@H]2C[C@H](c3c(-c4ccc(F)cc4)[nH]c4c(F)cc(F)cc43)C2)C1`, for which the IC50 (against Apolipoprotein L1; in test [1]) was over 1 µM each time.
As for `O=C(NCc1nnco1)[C@H]1C[C@H](c2c(-c3ccc(F)cc3)[nH]c3c(F)cc(F)cc32)C1`, the IC50 against Apolipoprotein L1 is 0.00025 µM; in test [1], under 0.25 µM.
`O=C(NC[C@H](O)C(F)(F)F)[C@H]1C[C@H](c2c(-c3ccc(F)cc3)[nH]c3c(F)cc(F)cc32)C1`: the concentration for half-maximal inhibition (IC50) at Apolipoprotein L1 was 0.00025 µM; in test [1], under 0.25 µM.
As for `O=C1NCC[C@@H]1NC(=O)[C@H]1C[C@H](c2c(-c3ccc(F)cc3)[nH]c3c(F)cc(F)cc32)C1`, the IC50 at Apolipoprotein L1 amounted to 0.00025 µM; in test [1] it was 0.25 µM.
For `O=C(N[C@@H]1CCC[C@H]1O)[C@H]1C[C@H](c2c(-c3ccc(F)cc3)[nH]c3c(F)cc(F)cc32)C1`, the IC50 (at Apolipoprotein L1; in test [1]) was over 1 µM each time.
For `O=C([C@H]1C[C@H](c2c(-c3ccc(F)cc3)[nH]c3c(F)cc(F)cc32)C1)N1CC(OCC2CCCO2)C1` (stereo not given in full), the IC50 (against Apolipoprotein L1; in test [1]) was over 1 µM in each case.
Consider `O=C(N[C@H](CO)C(F)(F)F)[C@H]1C[C@H](c2c(-c3ccc(F)cc3)[nH]c3c(F)cc(F)cc32)C1`, for which the results for the IC50 (against Apolipoprotein L1; in test [1]) were 0.00025 µM and under 0.25 µM, respectively.
For `O=C([C@H]1C[C@H](c2c(-c3ccc(F)cc3)[nH]c3c(F)cc(F)cc32)C1)N1CCCC(O)C1` (stereo not given in full), in that order: over 1 µM and 0.25 µM.
For `O=C(N[C@H]1CC[C@@H]1O)[C@H]1C[C@H](c2c(-c3ccc(F)cc3)[nH]c3c(F)cc(F)cc32)C1`, in that order: over 1 µM and 0.25 µM.
For `Cc1nnc(CNC(=O)[C@H]2C[C@H](c3c(-c4ccc(F)cc4)[nH]c4c(F)cc(F)cc43)C2)o1`, in that order: 0.00025 µM and under 0.25 µM.
On to `O=C([C@H]1C[C@H](c2c(-c3ccc(F)cc3)[nH]c3c(F)cc(F)cc32)C1)N1CCN[C@H](CO)C1`, for which the IC50 is over 1 µM on Apolipoprotein L1 and 0.25 µM in test [1].
Take `O=C(N[C@@H]1CC[C@H](O)C1)[C@H]1C[C@H](c2c(-c3ccc(F)cc3)[nH]c3c(F)cc(F)cc32)C1`: the IC50 (against Apolipoprotein L1; in test [1]) was over 1 µM throughout.
For the compound `CC(O)CNC(=O)[C@H]1C[C@H](c2c(-c3ccc(F)cc3)[nH]c3c(F)cc(F)cc32)C1` (stereo not given in full), the IC50 at Apolipoprotein L1 came to 0.00025 µM; in test [1], 0.25 µM.
For `NC(=O)[C@H](CO)NC(=O)[C@H]1C[C@H](c2c(-c3ccc(F)cc3)[nH]c3c(F)cc(F)cc32)C1`, in that order: 0.00025 µM and 0.25 µM.
`O=C(NC[C@@H](O)C(F)(F)F)[C@H]1C[C@H](c2c(-c3ccc(F)cc3)[nH]c3c(F)cc(F)cc32)C1`: the concentration for half-maximal inhibition (IC50) on Apolipoprotein L1 worked out at 0.00025 µM; in test [1], 0.25 µM.
For `C[C@@H](O)CNC(=O)[C@H]1C[C@H](c2c(-c3ccc(F)cc3)[nH]c3c(F)cc(F)cc32)C1`, in that order: 0.00025 µM and 0.25 µM.
For `O=C(N[C@H]1CC[C@H]1O)[C@H]1C[C@H](c2c(-c3ccc(F)cc3)[nH]c3c(F)cc(F)cc32)C1` the same measures were 0.00025 µM and 0.25 µM.
For `CC(C)[C@@H](CO)NC(=O)[C@H]1C[C@H](c2c(-c3ccc(F)cc3)[nH]c3c(F)cc(F)cc32)C1`, in that order: over 1 µM and over 1 µM.
Regarding `C[C@@H](O)[C@H](CO)NC(=O)[C@H]1C[C@H](c2c(-c3ccc(F)cc3)[nH]c3c(F)cc(F)cc32)C1`, the figures for the IC50 (at Apolipoprotein L1; in test [1]) were over 1 µM and 0.25 µM, respectively.
On to `O=C(N[C@@H](CO)C(F)(F)F)[C@H]1C[C@H](c2c(-c3ccc(F)cc3)[nH]c3c(F)cc(F)cc32)C1`, for which the IC50 on Apolipoprotein L1 was 0.00025 µM; in test [1], under 0.25 µM.
As to `O=C([C@H]1C[C@H](c2c(-c3ccc(F)cc3)[nH]c3c(F)cc(F)cc32)C1)N1CCOC(CO)C1` (stereo not given in full), the IC50 (against Apolipoprotein L1; in test [1]) was over 1 µM in each case.
`NC(=O)[C@H]1CCN(C(=O)[C@H]2C[C@H](c3c(-c4ccc(F)cc4)[nH]c4c(F)cc(F)cc43)C2)C1`: the IC50 (on Apolipoprotein L1; in test [1]) was over 1 µM in each case.
With `O=C(N[C@@H]1CCC[C@@H]1O)[C@H]1C[C@H](c2c(-c3ccc(F)cc3)[nH]c3c(F)cc(F)cc32)C1`, the IC50 against Apolipoprotein L1 was over 1 µM; in test [1] it was 0.25 µM.
For `O=C1CC[C@@H](NC(=O)[C@H]2C[C@H](c3c(-c4ccc(F)cc4)[nH]c4c(F)cc(F)cc43)C2)C1`, in that order: over 1 µM and over 1 µM.
Take `O=C(NCc1cnoc1)[C@H]1C[C@H](c2c(-c3ccc(F)cc3)[nH]c3c(F)cc(F)cc32)C1`: the 50% inhibitory concentration (IC50) on Apolipoprotein L1 is 0.00025 µM; in test [1] it was under 0.25 µM.
For `O=C([C@H]1C[C@H](c2c(-c3ccc(F)cc3)[nH]c3c(F)cc(F)cc32)C1)N1CC2(CC(O)C2)C1` the same measures were over 1 µM and over 1 µM.

(Values after ChEMBL document CHEMBL5052856, “Inhibitors of apol1 and methods of using same” (2021).)
